Source: the Kinase Knowledgebase extract (Sharma et al. 2016)
pIC50: −log10 of the molar value.

Legend:
MAPK14 (human) [1] = molecular target: MAPK14 (human) (UniProt Q16539); assay: Inhibition of MAPK14 Kinase Activity by PHAS-I Assay; conditions: for inhibition: concentration not given here
MAPK14 (human) [2] = molecular target: MAPK14 (human) (UniProt Q16539); assay: Inhibition of LPS Stimulated TNF Production by U937 Cells; conditions: for inhibition: concentration not given here

MAPK14 (human), sequence (Q16539 whole entry, looked up): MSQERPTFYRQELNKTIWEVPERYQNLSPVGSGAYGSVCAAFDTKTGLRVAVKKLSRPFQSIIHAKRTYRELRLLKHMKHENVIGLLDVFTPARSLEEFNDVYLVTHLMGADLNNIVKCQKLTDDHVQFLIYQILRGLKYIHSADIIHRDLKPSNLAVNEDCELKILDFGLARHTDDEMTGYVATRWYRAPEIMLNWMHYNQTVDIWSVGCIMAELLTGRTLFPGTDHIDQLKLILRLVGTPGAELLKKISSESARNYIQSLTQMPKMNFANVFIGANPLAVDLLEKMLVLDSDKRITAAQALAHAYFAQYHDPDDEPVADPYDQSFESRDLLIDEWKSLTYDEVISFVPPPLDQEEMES

What does the source list for CCCCS(=O)(=O)NCCc1[nH]nc(-c2ccc(F)cc2)c1-c1ccncc1?
inhibition (MAPK14 (human) [1]): 84%; inhibition (MAPK14 (human) [2]): 53%

How did the inhibition (MAPK14 (human) [1]) turn out when COC(=O)c1ccccc1NC(=O)NCCc1[nH]nc(-c2ccc(F)cc2)c1-c1ccncc1 was run?
The inhibition was 76%.

And the inhibition (MAPK14 (human) [2])?
Its inhibition is 31%.

For COc1ccc(OC)c(NC(=O)NCc2[nH]nc(-c3ccc(F)cc3)c2-c2ccncc2)c1, which inhibition (MAPK14 (human) [1]) is on record?
The inhibition was 39%.

What about the inhibition (MAPK14 (human) [2]) of the same compound?
The inhibition was 40%.

Which inhibition (MAPK14 (human) [1]) does the source give for CC(C)=CC(=O)NCCCc1[nH]nc(-c2ccc(F)cc2)c1-c1ccncc1 here?
Its inhibition is 72%.

What about the pIC50 (MAPK14 (human) [2]) of the same compound?
Its pIC50 is 5.74.

CC(Oc1ccccc1)C(=O)NCCc1[nH]nc(-c2ccc(F)cc2)c1-c1ccncc1 (configuration not stated) was tested. Which inhibition (MAPK14 (human) [1]) did it give?
Its inhibition is 80%.

And the inhibition (MAPK14 (human) [2])?
The inhibition was 55%.

For O=C(NCCc1[nH]nc(-c2ccc(F)cc2)c1-c1ccncc1)c1ccno1, which inhibition (MAPK14 (human) [1]) is on record?
Its inhibition is 77%.

And the inhibition (MAPK14 (human) [2])?
Its inhibition is 45%.

How did the inhibition (MAPK14 (human) [1]) turn out when CCS(=O)(=O)NCCc1[nH]nc(-c2ccc(F)cc2)c1-c1ccncc1 was run?
The inhibition was 93%.

And the inhibition (MAPK14 (human) [2])?
The inhibition was 70%.

Which inhibition (MAPK14 (human) [1]) does the source give for CCOC(=O)[C@H](Cc1ccccc1)NC(=O)Cn1nc(-c2ccc(F)cc2)c(-c2ccncc2)c1C here?
The inhibition was 77%.

What about the inhibition (MAPK14 (human) [2]) of the same compound?
Its inhibition is 1%.

Which results are given for O=C(NCCc1[nH]nc(-c2ccc(F)cc2)c1-c1ccncc1)Nc1ccccc1-c1ccccc1?
inhibition (MAPK14 (human) [1]): 63%; inhibition (MAPK14 (human) [2]): 35%

O=C(NCCc1[nH]nc(-c2ccc(F)cc2)c1-c1ccncc1)N[C@@H]1C[C@@H]1c1ccccc1 was tested. Which inhibition (MAPK14 (human) [1]) did it give?
The inhibition was 81%.

And the inhibition (MAPK14 (human) [2])?
Its inhibition is 25%.

How did the pIC50 (MAPK14 (human) [1]) turn out when CC1(C)[C@@H]2CC[C@]1(CS(=O)(=O)NCCc1[nH]nc(-c3ccc(F)cc3)c1-c1ccncc1)C(=O)C2 was run?
Its pIC50 is 6.80.

And the inhibition (MAPK14 (human) [2])?
The inhibition was 44%.

With COc1ccc(C2OCCN2C(=O)Cn2nc(-c3ccc(F)cc3)c(-c3ccncc3)c2C)cc1OC (configuration not stated) as the compound, how does the inhibition (MAPK14 (human) [1]) read?
Its inhibition is 69%.

What about the inhibition (MAPK14 (human) [2]) of the same compound?
The inhibition was 18%.

What does the source list for Cc1c(-c2ccncc2)c(-c2ccc(F)cc2)nn1CC(=O)NC1CCCC1?
inhibition (MAPK14 (human) [1]): 58%; inhibition (MAPK14 (human) [2]): 36%

With C[C@H](NS(=O)(=O)C[C@@]12CC[C@H](CC1=O)C2(C)C)c1[nH]nc(-c2ccc(F)cc2)c1-c1ccncc1 as the compound, how does the pIC50 (MAPK14 (human) [1]) read?
The pIC50 was 6.80.

And the inhibition (MAPK14 (human) [2])?
Its inhibition is 60%.

What does the source list for O=C(NCc1[nH]nc(-c2ccc(F)cc2)c1-c1ccncc1)c1ccc(OC(F)(F)F)cc1?
inhibition (MAPK14 (human) [1]): 69%; inhibition (MAPK14 (human) [2]): 45%

For CCc1ccccc1NC(=O)NCCc1[nH]nc(-c2ccc(F)cc2)c1-c1ccncc1, which inhibition (MAPK14 (human) [1]) is on record?
The inhibition was 79%.

And the inhibition (MAPK14 (human) [2])?
The inhibition was 22%.

How did the pIC50 (MAPK14 (human) [1]) turn out when C[C@H](NC(=O)Nc1ccccc1F)c1[nH]nc(-c2ccc(F)cc2)c1-c1ccncc1 was run?
Its pIC50 is 5.16.

And the inhibition (MAPK14 (human) [2])?
The inhibition was 38%.

Which inhibition (MAPK14 (human) [1]) does the source give for CCOC(=O)CCNC(=O)NCCc1[nH]nc(-c2ccc(F)cc2)c1-c1ccncc1 here?
The inhibition was 69%.

And the inhibition (MAPK14 (human) [2])?
The inhibition was 34%.

Which results are given for O=C(NCCc1[nH]nc(-c2ccc(F)cc2)c1-c1ccncc1)C1CCCC1?
inhibition (MAPK14 (human) [1]): 79%; inhibition (MAPK14 (human) [2]): 45%

Which results are given for O=C(NCCc1[nH]nc(-c2ccc(F)cc2)c1-c1ccncc1)Nc1ccc(Cl)c(Cl)c1?
inhibition (MAPK14 (human) [1]): 79%; inhibition (MAPK14 (human) [2]): 23%

How did the inhibition (MAPK14 (human) [1]) turn out when O=C(NCCc1[nH]nc(-c2ccc(F)cc2)c1-c1ccncc1)c1cccnc1 was run?
The inhibition was 58%.

What about the inhibition (MAPK14 (human) [2]) of the same compound?
Its inhibition is 23%.

Which results are given for CCN(CC)C(=O)NCc1[nH]nc(-c2ccc(F)cc2)c1-c1ccncc1?
pIC50 (MAPK14 (human) [1]): 6.89; inhibition (MAPK14 (human) [2]): 40%

How did the inhibition (MAPK14 (human) [1]) turn out when Cc1c(-c2ccncc2)c(-c2ccc(F)cc2)nn1CC(=O)N1CCCCC1C[C@@H]1CCCN1C (some centres not stated) was run?
The inhibition was 42%.

What about the inhibition (MAPK14 (human) [2]) of the same compound?
The inhibition was 24%.

For CC(Oc1ccccc1)C(=O)NCCCc1[nH]nc(-c2ccc(F)cc2)c1-c1ccncc1 (configuration not stated), which inhibition (MAPK14 (human) [1]) is on record?
The inhibition was 83%.

And the inhibition (MAPK14 (human) [2])?
Its inhibition is 60%.

C[C@@H](NS(=O)(=O)c1cc(Cl)cc(Cl)c1O)c1[nH]nc(-c2ccc(F)cc2)c1-c1ccncc1 was tested. Which pIC50 (MAPK14 (human) [1]) did it give?
Its pIC50 is 5.95.

And the inhibition (MAPK14 (human) [2])?
Its inhibition is 71%.

What does the source list for Cc1cc(Cl)ccc1OCC1SCCN1C(=O)Cn1nc(-c2ccc(F)cc2)c(-c2ccncc2)c1C (configuration not stated)?
inhibition (MAPK14 (human) [1]): 47%; pIC50 (MAPK14 (human) [2]): < 5.00
